{
  "source": "patent US9169254B2",
  "about": "“Spiroimidazolone derivative” (Chugai Seiyaku Kabushiki Kaisha, priority 2009, dated 2015)",
  "data": [
    {"biological_target": "T1, human PTH1 receptor (Homo sapiens, UniProt Q03431)", "T1 sequence (Q03431 27-593)": "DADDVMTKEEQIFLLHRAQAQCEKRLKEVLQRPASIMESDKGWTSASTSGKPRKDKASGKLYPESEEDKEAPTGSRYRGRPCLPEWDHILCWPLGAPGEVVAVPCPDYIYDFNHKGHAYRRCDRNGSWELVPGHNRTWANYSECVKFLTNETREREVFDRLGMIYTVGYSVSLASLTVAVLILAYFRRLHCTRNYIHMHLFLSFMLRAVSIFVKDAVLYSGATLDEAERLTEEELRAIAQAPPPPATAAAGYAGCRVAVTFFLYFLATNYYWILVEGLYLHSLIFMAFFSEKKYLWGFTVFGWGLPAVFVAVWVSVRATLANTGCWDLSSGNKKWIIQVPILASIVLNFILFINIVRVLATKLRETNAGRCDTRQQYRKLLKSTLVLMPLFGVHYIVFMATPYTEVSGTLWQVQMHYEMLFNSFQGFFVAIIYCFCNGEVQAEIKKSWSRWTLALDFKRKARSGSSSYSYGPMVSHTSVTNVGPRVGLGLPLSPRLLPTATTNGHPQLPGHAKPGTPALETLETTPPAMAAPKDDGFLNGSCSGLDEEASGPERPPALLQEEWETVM", "test": "In vitro cAMP signal activity in HKRK-B7 cells (LLC-PK1 cells overexpressing the human PTH1 receptor)", "format": "cell-based", "conditions": "HKRK-B7 cells; compound at 1×10^−3 M; cAMP produced as percentage of that produced by hPTH(1-34) at 100 nM", "units": {"cAMP production activity (%)": "%"}, "values": [
      {"smiles": "Cc1cc(C(=O)O)cc(C)c1CCS(=O)(=O)N1CCC2(CC1)N=C(C1CCC(CCC(F)(F)F)CC1)NC2=O", "note": "(stereo not drawn) [Compound 768, 3,5-dimethyl-4-(2-{4-oxo-2-[4-(3,3,3-trifluoro-propyl)-cyclohexyl]-1,3,8-triaza-spiro[4.5]dec-1-ene-8-sulfonyl}-ethyl)-benzoic acid]", "cAMP production activity (%)": 79},
      {"smiles": "Cc1cc(NCC(N)=O)ccc1CCS(=O)(=O)N1CCC2(CC1)N=C(c1cccc(OC(F)(F)F)c1)NC2=O", "note": "[Compound 847, 2-(3-methyl-4-{2-[4-oxo-2-(3-trifluoromethoxy-phenyl)-1,3,8-triaza-spiro[4.5]dec-1-ene-8-sulfonyl]-ethyl}-phenylamino)-acetamide]", "cAMP production activity (%)": 71},
      {"smiles": "O=C1NC(CCc2ccccc2)=NC12CCN(S(=O)(=O)c1cccc(Cl)c1)CC2", "note": "[Compound 29, 8-(3-chloro-benzenesulfonyl)-2-phenethyl-1,3,8-triaza-spiro[4.5]dec-1-en-4-one]", "cAMP production activity (%)": 28},
      {"smiles": "Cc1cc(N2C(=O)CC[C@H]2CO)ccc1/C=C/S(=O)(=O)N1CCC2(CC1)N=C(c1ccc(F)c(C(F)(F)F)c1)NC2=O", "note": "[Compound 621, 2-(4-fluoro-3-trifluoromethyl-phenyl)-8-{(E)-2-[4-((S)-2-hydroxymethyl-5-oxo-pyrrolidin-1-yl)-2-methyl-phenyl]-ethenesulfonyl}-1,3,8-triaza-spiro[4.5]dec-1-en-4-one]", "cAMP production activity (%)": 80},
      {"smiles": "O=C1NC(C2CCCCC2)=NC12CCN(S(=O)(=O)/C=C/c1cccc3c1ccn3Cc1nccs1)CC2", "note": "[Compound 483, 2-cyclohexyl-8-[(E)-2-(1-thiazol-2-ylmethyl-1H-indol-4-yl)-ethenesulfonyl]-1,3,8-triaza-spiro[4.5]dec-1-en-4-one]", "cAMP production activity (%)": 41},
      {"smiles": "Cc1cc(N(C)C(N)=O)cc(C)c1CCS(=O)(=O)N1CCC2(CC1)N=C(C1CCCC(C)C1)NC2=O", "note": "(stereo not drawn) [Compound 1297, 1-(3,5-Dimethyl-4-{2-[2-(3-methyl-cyclohexyl)-4-oxo-1,3,8-triaza-spiro[4.5]dec-1-ene-8-sulfonyl]-ethyl}-phenyl)-1-methyl-urea]", "cAMP production activity (%)": 98},
      {"smiles": "Cc1ccccc1CCS(=O)(=O)N1CCC2(CC1)N=C(C1CCCCC1)NC2=S", "note": "[Compound 469, 2-Cyclohexyl-8-(2-o-tolyl-ethanesulfonyl)-1,3,8-triaza-spiro[4.5]dec-1-ene-4-thione]", "cAMP production activity (%)": 47},
      {"smiles": "Cc1cc(C(=O)N(C)C)ccc1-c1ccc(S(=O)(=O)N2CCC3(CC2)N=C(c2cccc(OC(F)(F)F)c2)NC3=O)cc1", "note": "[Compound 336, 2-methyl-4′-[4-oxo-2-(3-trifluoromethoxy-phenyl)-1,3,8-triaza-spiro[4.5]dec-1-ene-8-sulfonyl]-biphenyl-4-carboxylic acid dimethylamide]", "cAMP production activity (%)": 28},
      {"smiles": "Cc1cc(C(=O)N2CCC(O)(CF)CC2)cc(C)c1CCS(=O)(=O)N1CCC2(CC1)N=C(c1ccc3c(c1)OC(F)(F)O3)NC2=O", "note": "[Compound 1275, 2-(2,2-difluoro-benzo[1,3]dioxol-5-yl)-8-{2-[4-(4-fluoromethyl-4-hydroxy-piperidine-1-carbonyl)-2,6-dimethyl-phenyl]-ethanesulfonyl}-1,3,8-triaza-spiro[4.5]dec-1-en-4-one]", "cAMP production activity (%)": 89},
      {"smiles": "Cc1cc(N(C)C(N)=O)cc(C)c1CCS(=O)(=O)N1CCC2(CC1)N=C(CCCCCCc1ccccc1)NC2=O", "note": "[Compound 1349, 1-(3,5-dimethyl-4-{2-[4-oxo-2-(6-phenyl-hexyl)-1,3,8-triaza-spiro[4.5]dec-1-ene-8-sulfonyl]-ethyl}-phenyl)-1-methyl-urea]", "cAMP production activity (%)": 98},
      {"smiles": "Cc1cc(C(=O)N2CCC(C)(O)CC2)cc(C)c1/C=C/S(=O)(=O)N1CCC2(CC1)N=C(c1ccc(OCC(F)(F)F)c(C(F)(F)F)c1)NC2=O", "note": "[Compound 1200, 8-{(E)-2-[4-(4-hydroxy-4-methyl-piperidine-1-carbonyl)-2,6-dimethyl-phenyl]-ethenesulfonyl}-2-[4-(2,2,2-trifluoro-ethoxy)-3-trifluoromethyl-phenyl]-1,3,8-triaza-spiro[4.5]dec-1-en-4-one]", "cAMP production activity (%)": 73},
      {"smiles": "Cc1cc(C(=O)N2CCC(O)(CF)CC2)cc(C)c1/C=C/S(=O)(=O)N1CCC2(CC1)N=C(c1ccc(OCC(F)(F)C(F)F)c(C(F)(F)F)c1)NC2=O", "note": "[Compound 1251, 8-{(E)-2-[4-(4-fluoromethyl-4-hydroxy-piperidine-1-carbonyl)-2,6-dimethyl-phenyl]-ethenesulfonyl}-2-[4-(2,2,3,3-tetrafluoro-propoxy)-3-trifluoromethyl-phenyl]-1,3,8-triaza-spiro[4.5]dec-1-en-4-one]", "cAMP production activity (%)": 56},
      {"smiles": "Cc1cc(C(=O)N2CCCN2)cc(C)c1/C=C/S(=O)(=O)N1CCC2(CC1)N=C(C1CCC(CCC(F)(F)F)CC1)NC2=O", "note": "(stereo not drawn) [Compound 997, 8-{(E)-2-[2,6-dimethyl-4-(pyrazolidine-1-carbonyl)-phenyl]-ethenesulfonyl}-2-[4-(3,3,3-trifluoro-propyl)-cyclohexyl]-1,3,8-triaza-spiro[4.5]dec-1-en-4-one]", "cAMP production activity (%)": 74},
      {"smiles": "Cc1cc(N2C(=O)CNC2=O)ccc1CCS(=O)(=O)N1CCC2(CC1)N=C(C1CCC(CCC(F)F)CC1)NC2=O", "note": "(stereo not drawn) [Compound 956, 3-[4-(2-{2-[4-(3,3-difluoro-propyl)-cyclohexyl]-4-oxo-1,3,8-triaza-spiro[4.5]dec-1-ene-8-sulfonyl}-ethyl)-3-methyl-phenyl]-imidazolidine-2,4-dione]", "cAMP production activity (%)": 87},
      {"smiles": "Cc1cc(C(=O)N(C)C)cc(C)c1/C=C/S(=O)(=O)N1CCC2(CC1)N=C(C1CCC(C)CC1)NC2=O", "note": "(stereo not drawn) [Compound 1003, 3,5,N,N-tetramethyl-4-{(E)-2-[2-(4-methyl-cyclohexyl)-4-oxo-1,3,8-triaza-spiro[4.5]dec-1-ene-8-sulfonyl]-vinyl}-benzamide]", "cAMP production activity (%)": 67},
      {"smiles": "CN1CCCc2c(/C=C/S(=O)(=O)N3CCC4(CC3)N=C(C3CCCCC3)NC4=O)cccc21", "note": "[Compound 638, 2-cyclohexyl-8-[(E)-2-(1-methyl-1,2,3,4-tetrahydro-quinolin-5-yl)-ethenesulfonyl]-1,3,8-triaza-spiro[4.5]dec-1-en-4-one]", "cAMP production activity (%)": 46},
      {"smiles": "Cc1cc(N(C)C(N)=O)cc(C)c1/C=C/S(=O)(=O)N1CCC2(CC1)N=C(CCCCCCCCCCCNC(=O)OC(C)(C)C)NC2=O", "note": "[Compound 1308, [11-(8-{(E)-2-[2,6-dimethyl-4-(1-methyl-ureido)-phenyl]-ethenesulfonyl}-4-oxo-1,3,8-triaza-spiro[4.5]dec-1-en-2-yl)-undecyl]-carbamic acid tert-butyl ester]", "cAMP production activity (%)": 102},
      {"smiles": "CNC(=O)c1ccc(C)c(CCS(=O)(=O)N2CCC3(CC2)N=C(c2cccc(OC(F)(F)F)c2)NC3=O)c1", "note": "[Compound 415, 4,N-dimethyl-3-{2-[4-oxo-2-(3-trifluoromethoxy-phenyl)-1,3,8-triaza-spiro[4.5]dec-1-ene-8-sulfonyl]-ethyl}-benzamide]", "cAMP production activity (%)": 56},
      {"smiles": "O=C(CO)N1CCCC(C2=NC3(CCN(S(=O)(=O)c4cccc(Cl)c4)CC3)C(=O)N2)C1", "note": "(stereo not drawn) [Compound 424, 8-(3-chloro-benzenesulfonyl)-2-[1-(2-hydroxy-acetyl)-piperidin-3-yl]-1,3,8-triaza-spiro[4.5]dec-1-en-4-one]", "cAMP production activity (%)": 2.5},
      {"smiles": "CCCCCCCCCC1=NC2(CCN(S(=O)(=O)CCc3c(C)cc(C(=O)N4CCN(C)CC4)cc3C)CC2)C(=O)N1", "note": "[Compound 986, 8-{2-[2,6-dimethyl-4-(4-methyl-piperazine-1-carbonyl)-phenyl]-ethanesulfonyl}-2-nonyl-1,3,8-triaza-spiro[4.5]dec-1-en-4-one]", "cAMP production activity (%)": 96},
      {"smiles": "Cc1cc(C(=O)N2CC(F)(F)C(F)(F)C2)ccc1/C=C/S(=O)(=O)N1CCC2(CC1)N=C(C1CCCCC1)NC2=O", "note": "[Compound 203, 2-cyclohexyl-8-{(E)-2-[2-methyl-4-(3,3,4,4-tetrafluoro-pyrrolidine-1-carbonyl)-phenyl]-ethenesulfonyl}-1,3,8-triaza-spiro[4.5]dec-1-en-4-one]", "cAMP production activity (%)": 25},
      {"smiles": "Cc1cc(CN2CCCC2=O)cc(C)c1/C=C/S(=O)(=O)N1CCC2(CC1)N=C(C1CCC(C)CC1)NC2=O", "note": "(stereo not drawn) [Compound 520, 8-{(E)-2-[2,6-dimethyl-4-(2-oxo-pyrrolidin-1-ylmethyl)-phenyl]-ethenesulfonyl}-2-(4-methyl-cyclohexyl)-1,3,8-triaza-spiro[4.5]dec-1-en-4-one]", "cAMP production activity (%)": 28},
      {"smiles": "Cc1cc(N2C(=O)CNC2=O)ccc1CCS(=O)(=O)N1CCC2(CC1)N=C(c1cccc(OC(F)(F)F)c1)NC2=O", "note": "[Compound 792, 3-(3-methyl-4-{2-[4-oxo-2-(3-trifluoromethoxy-phenyl)-1,3,8-triaza-spiro[4.5]dec-1-ene-8-sulfonyl]-ethyl}-phenyl)-imidazolidine-2,4-dione]", "cAMP production activity (%)": 110},
      {"smiles": "Cc1cc(N2C(=O)CC[C@@H]2CN(C)C)cc(C)c1/C=C/S(=O)(=O)N1CCC2(CC1)N=C(c1cccc(OC(F)(F)F)c1)NC2=O", "note": "[Compound 611, 8-{(E)-2-[4-((R)-2-dimethylaminomethyl-5-oxo-pyrrolidin-1-yl)-2,6-dimethyl-phenyl]-ethenesulfonyl}-2-(3-trifluoromethoxy-phenyl)-1,3,8-triaza-spiro[4.5]dec-1-en-4-one]", "cAMP production activity (%)": 82}
    ]}
  ]
}
